Usually pIC50 stands for the IC50 on a negative log10 scale, so that one unit is a factor of ten.

pIC50: −log10 of the molar value.

In this assay the target is T1, Mucosa-associated lymphoid tissue lymphoma translocation protein 1 (Homo sapiens, UniProt Q9UDY8).
T1 sequence (Q9UDY8 whole entry): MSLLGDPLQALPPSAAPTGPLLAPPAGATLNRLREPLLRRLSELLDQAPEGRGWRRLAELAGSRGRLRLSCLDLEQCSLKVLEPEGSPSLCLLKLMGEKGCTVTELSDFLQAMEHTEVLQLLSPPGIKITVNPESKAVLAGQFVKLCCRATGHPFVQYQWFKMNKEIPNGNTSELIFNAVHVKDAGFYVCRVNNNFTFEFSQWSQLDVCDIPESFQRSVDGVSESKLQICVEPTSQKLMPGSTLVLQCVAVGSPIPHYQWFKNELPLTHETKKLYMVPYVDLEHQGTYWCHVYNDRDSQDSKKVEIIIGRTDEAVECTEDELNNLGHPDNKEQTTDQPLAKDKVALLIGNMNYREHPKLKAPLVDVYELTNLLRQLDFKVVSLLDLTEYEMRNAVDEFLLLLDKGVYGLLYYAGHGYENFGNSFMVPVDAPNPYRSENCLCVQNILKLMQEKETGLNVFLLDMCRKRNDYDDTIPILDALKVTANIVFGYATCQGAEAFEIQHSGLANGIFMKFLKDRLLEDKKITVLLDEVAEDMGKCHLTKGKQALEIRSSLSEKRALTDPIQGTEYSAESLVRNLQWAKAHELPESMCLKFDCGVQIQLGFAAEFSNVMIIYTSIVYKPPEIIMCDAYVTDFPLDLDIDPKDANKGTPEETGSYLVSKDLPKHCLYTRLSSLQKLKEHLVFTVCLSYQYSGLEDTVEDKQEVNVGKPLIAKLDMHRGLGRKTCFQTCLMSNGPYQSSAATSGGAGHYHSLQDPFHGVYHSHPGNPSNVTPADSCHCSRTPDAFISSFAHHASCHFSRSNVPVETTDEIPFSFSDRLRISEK
The assay can be described thus: MALT-1 Inhibition Assay. Here is the method: MALT-1 paracaspase activity was measured using the fluorogenic substrate Ac-LRSR-Rh110-DP (purchased from Biosantan GmbH). Proteolytic cleavage of the peptide—rhodamine conjugate results in an increase of rhodamine fluorescence which is inhibited by test compounds. Test compounds were diluted in DMSO in a series of 10 semi-log step doses, 15 nL of each compound dose were dispensed in 384 well polypropylene plates (HiBase non-binding, Greiner Bio-One cat #784900). All other assay components were diluted to appropriate working concentrations in assay buffer composed of: 200 mM Tris-HCl (pH 7.5; Sigma-Aldrich cat #T2663-1L), 0.1 mM EGTA (Sigma-Aldrich cat #E3889-10G), 0.05% CHAPS—Sigma-Aldrich cat #C9426-1G), 1 mM TCEP (Sigma-Aldrich cat #646547-10×1 mL), 0.8 M sodium citrate (Sigma-Aldrich cat #S1804-500G). Recombinant human MALT-1 (amino acids 340-824, accession NP_006776.1) was added to compound doses and equilibrated for 40 minutes at rt. The reaction was initiated by addition of substrate. Final concentrations of MALT-1 and substrate were 3 nM and 10 μM respectively. Reactions were incubated in the dark for 60 minutes at 25° C. Fluorescence was measured in a PHERAstar FSX plate reader (BMG LABTECH) with optical setup for excitation at 485 nm and emission at 520 nm, focal height of 11.8 mm, 20 flashes, gain 300. Percent inhibition values were calculated from relative fluorescence units at different doses and fitted to a 4-parameter logistic curve to determine IC50 values.
The compound `CO[C@@H](C)c1c(Nc2ccc([C@H](N(C)C(=O)[C@@H]3CCC(=O)NC3)C(F)(F)F)cc2)cnn2cc(Cl)nc12` (relative stereo) [US20250051327, Reference CPD0082472] showed a pIC50 of 7.39.

With `COc1ccc2ncc(Nc3ccc([C@H](N(C)C(=O)[C@H]4CNC(=O)C4)C(F)(F)F)cc3)c([C@@H]3CCOC3)c2n1` (relative stereo) [US20250051327, Reference CPD0082477], the negative logarithm of the IC50 (pIC50) was 7.39.

On to `CO[C@@H](C)c1c(Nc2ccc([C@H](N(C)C(=O)[C@H]3CCN(C(=O)CO)C3)C(F)(F)F)cc2)cnn2cc(Cl)nc12` (relative stereo) [US20250051327, Reference CPD0084139], for which the pIC50 was 7.28.

As for `CO[C@@H](C)c1c(Nc2ccc([C@H](N(C)C(=O)[C@@H]3CCN(C(=O)CO)C3)C(F)(F)F)cc2)cnn2cc(Cl)nc12` (relative stereo) [US20250051327, Reference CPD0084140], the pIC50 is 7.35.

For the compound `COc1ccc2ncc(Nc3ccc([C@H](N(C)C(=O)[C@H]4CNC(=O)C4)C(F)(F)F)cc3)c([C@H]3CCOC3)c2n1` (relative stereo) [US20250051327, Reference CPD0084143], the pIC50 was 7.14.

`COc1ccc2ncc(Nc3ccc([C@H](N(C)C(=O)[C@@H]4CNC(=O)C4)C(F)(F)F)cc3)c([C@H]3CCOC3)c2n1` (relative stereo) [US20250051327, Reference CPD0084144] gave a pIC50 of 7.12.

As for `COc1ccc2ncc(Nc3ccc([C@H](N(C)C(=O)C4CCS(=O)(=O)CC4)C(F)(F)F)cn3)c(C(C)OC)c2n1` (stereo partly drawn) [US20250051327, Reference CPD0019007], the pIC50 was 6.62.

`COc1ccc2ccc(Nc3ccc([C@H](N(C)C(=O)C4CCS(=O)(=O)CC4)C(F)(F)F)cc3)cc2n1` [US20250051327, Reference CPD0019078] gave a pIC50 of 6.74.

Compound `CN(C(=O)C1CCS(=O)(=O)CC1)[C@@H](c1ccc(N2CCCc3c2cnc2cc(Cl)nn32)nc1)C(F)(F)F` [US20250051327, Reference CPD0019212] had a pIC50 of 6.50.

As to `CN(C(=O)C1CCS(=O)(=O)CC1)[C@@H](c1ccc(N2CCC3(CC3)c3c2cnc2cc(Cl)nn32)cc1)C(F)(F)F` [US20250051327, Reference CPD0019590], the negative logarithm of the IC50 (pIC50) is 7.19.

`CN(C(=O)C1CCS(=O)(=O)CC1)[C@@H](c1ccc(N2CCC3(CC3)c3c2cnc2cc(Cl)nn32)nc1)C(F)(F)F` [US20250051327, Reference CPD0021660] gave a pIC50 of 7.06. The pIC50 values of the last two compounds are within 0.2 log units of each other.

Turning to `COC[C@@]1(C)CCN(c2ccc([C@H](N(C)C(=O)C3CCS(=O)(=O)CC3)C(F)(F)F)cc2)c2cnc3cc(Cl)nn3c21` [US20250051327, Reference CPD0073139], the pIC50 was 6.95.

In the case of `COC[C@]1(C)CCN(c2ccc([C@H](N(C)C(=O)C3CCS(=O)(=O)CC3)C(F)(F)F)cc2)c2cnc3cc(Cl)nn3c21` [US20250051327, Reference CPD0073140], the pIC50 is 7.04.

`CN(C(=O)[C@@H]1CCN(C(=O)CC#N)C1)[C@@H](c1ccc(N2CCCc3c2cnc2cc(Cl)nn32)cc1)C(F)(F)F` [US20250051327, Reference CPD0073190] had a pIC50 of 6.94.

Compound `CN(C(=O)[C@H]1CCN(C(=O)CC#N)C1)[C@@H](c1ccc(N2CCCc3c2cnc2cc(Cl)nn32)cc1)C(F)(F)F` [US20250051327, Reference CPD0073191] showed a pIC50 of 7.02.

Compound `CN(C(=O)[C@H]1C[C@@H]([S@@+](C)(=N)[O-])C1)[C@@H](c1ccc(N2CCCc3c2cnc2cc(Cl)nn32)cc1)C(F)(F)F` [US20250051327, Reference CPD0073223] had a pIC50 of 7.24. Against the preceding compound, the pIC50 is 0.22 log units higher.

For the compound `CN(C(=O)[C@H]1CC[S@](=N)(=O)CC1)[C@@H](c1ccc(N2CC(C)(C)Cc3c2cnc2cc(Cl)nn32)cc1)C(F)(F)F` [US20250051327, Reference CPD0073497], the negative-log IC50 (pIC50) was 7.28.

For `CN(C(=O)[C@H]1CC[S@@](=N)(=O)CC1)[C@@H](c1ccc(N2CC(C)(C)Cc3c2cnc2cc(Cl)nn32)cc1)C(F)(F)F` [US20250051327, Reference CPD0073498], the pIC50 is 7.28.
